Reference: patent US20260293949A1, “CARBONATION SENSATION IMPARTING OR ENHANCING AGENT” (TAKASAGO INTERNATIONAL CORPORATION, priority 2022, published 2026)
Entries after “also recorded” stand apart in the source; their conditions may differ.

Legend:
[1] = Sensory evaluation of carbonation sensation imparting in cider-flavored frozen dessert; type: in vivo; settings: for Carbonation sensation imparting evaluation result: average score of seven panelists, 1 to 5
Method: (§1) In the following Examples, the action and effect were verified using a value obtained by calculating an average score of scores for imparting or enhancing fizziness by sensory evaluation conducted by specialized panelists. The expression “1 point” in the evaluation is the evaluation in the case where no component is added at all (no addition).
(§2) Diethyl sebacate was separately added to a cider-flavored frozen dessert prepared according to the formulation shown in Table 16 so as to reach a concentration shown in Table 17 below, and sensory evaluation was performed by seven panelists to determine the extent to which fizziness was imparted as compared with a control in which diethyl sebacate was not added.

human TRPV1 = biological target: T1, human TRPV1 (Homo sapiens, UniProt Q8NER1); assay: Evaluation of human TRPV1 activity in stably expressing cells (Fluo 4-AM calcium fluorescence); type: cell-based; settings: human TRPV1 stably expressing Flp-In 293 cells; fluorescence 485/525 nm, 27° C.
T1 construct: doxycycline-inducible Flp-In T-REx 293 cells; Fluo-4 calcium assay
Text: (§3) The full-length human TRPA1 gene (GenBank Accession Number: NM_007332) was amplified from plasmid pFN21AB7348 (manufactured by Kazusa DNA Research Institute), and the full-length human TRPV1 gene (GenBank Accession Number: NM_018727) was amplified from pFN21AE2418 (manufactured by Kazusa DNA Research Institute) using PCR. The obtained PCR product was subcloned into pcDNA5/FRT/TO (manufactured by ThermoFisher Scientific), and then introduced into Flp-In 293 cells (manufactured by Thermo Fisher Scientific) using a Flp-In T-REX system (manufactured by Thermo Fisher Scientific) to prepare a human TRPA1 stably expressing cell line and a human TRPV1 stably expressing cell line […]
(§4) After replacing the culture medium with buffer solution, fluorescent calcium indicator Fluo 4-AM (manufactured by Dojindo Laboratories) was added and incubated at 37° C. for 1 hour. After replacing the culture solution with buffer solution again, the microplate was set to a fluorescence microplate reader FlexStation 3 (manufactured by Molecular Devices, LLC.). Diethyl sebacate was added at various concentrations at an internal temperature of 27° C., and the fluorescence intensity at a wavelength of 525 nm when excited at a wavelength of 485 nm was measured. […]

[2] = Sensory evaluation of fizziness enhancement in carbonated grapefruit flavored Chu-Hi; type: in vivo; settings: for Fizziness enhancement evaluation result: carbonated Chu-Hi, average score of seven panelists, 1 to 5
[3] = Sensory evaluation of fizziness enhancement in beer-flavored beverage; type: in vivo; settings: for Fizziness enhancement evaluation result: beer-flavored beverage, average score of seven panelists, 1 to 5
Method: as §1
Diethyl sebacate was separately added to “Asahi Dry Zero (registered trademark) (manufactured by Asahi Breweries, Ltd.)” so as to reach the concentrations shown in Table 8 below, and sensory evaluation was performed by seven specialized panelists to determine the extent to which fizziness was enhanced as compared with a control in which diethyl sebacate was not added.

human TRPA1 = biological target: T2, human TRPA1 (Homo sapiens, UniProt O75762); assay: Evaluation of human TRPA1 activity in stably expressing cells (Fluo 4-AM calcium fluorescence); type: cell-based; settings: human TRPA1 stably expressing Flp-In 293 cells; fluorescence 485/525 nm, 27° C.
T2 construct: doxycycline-inducible Flp-In T-REx 293 cells; Fluo-4 calcium assay
Text: as §3, §4

[4] = Sensory evaluation of carbonation sensation imparting in grape-flavored mouthwash; type: in vivo; settings: for Carbonation sensation imparting evaluation result: grape-flavored mouthwash, average score of five panelists, 1 to 5
Method: as §1
as §2, with “grape-flavored mouthwash” for “a cider-flavored frozen dessert”, “18” for “16”, “19” for “17”, “five” for “seven”

[5] = Sensory evaluation of fizziness enhancement in cider-flavored carbonated beverage; type: in vivo; settings: for Fizziness enhancement evaluation result: average score of seven panelists, 1 to 5
Method: as §1
Diethyl sebacate was separately added to “Mitsuya Cider (registered trademark) Zero Strong (manufactured by Asahi Soft Drinks Co., Ltd.)” so as to reach the concentrations shown in Table 6 below, and sensory evaluation was performed by seven specialized panelists to determine the extent to which fizziness was enhanced as compared with a control in which diethyl sebacate was not added.

[6] = carbonated grapefruit flavored Chu-Hi
[7] = carbonated beer-flavored beverage

T1 sequence (Q8NER1 whole entry): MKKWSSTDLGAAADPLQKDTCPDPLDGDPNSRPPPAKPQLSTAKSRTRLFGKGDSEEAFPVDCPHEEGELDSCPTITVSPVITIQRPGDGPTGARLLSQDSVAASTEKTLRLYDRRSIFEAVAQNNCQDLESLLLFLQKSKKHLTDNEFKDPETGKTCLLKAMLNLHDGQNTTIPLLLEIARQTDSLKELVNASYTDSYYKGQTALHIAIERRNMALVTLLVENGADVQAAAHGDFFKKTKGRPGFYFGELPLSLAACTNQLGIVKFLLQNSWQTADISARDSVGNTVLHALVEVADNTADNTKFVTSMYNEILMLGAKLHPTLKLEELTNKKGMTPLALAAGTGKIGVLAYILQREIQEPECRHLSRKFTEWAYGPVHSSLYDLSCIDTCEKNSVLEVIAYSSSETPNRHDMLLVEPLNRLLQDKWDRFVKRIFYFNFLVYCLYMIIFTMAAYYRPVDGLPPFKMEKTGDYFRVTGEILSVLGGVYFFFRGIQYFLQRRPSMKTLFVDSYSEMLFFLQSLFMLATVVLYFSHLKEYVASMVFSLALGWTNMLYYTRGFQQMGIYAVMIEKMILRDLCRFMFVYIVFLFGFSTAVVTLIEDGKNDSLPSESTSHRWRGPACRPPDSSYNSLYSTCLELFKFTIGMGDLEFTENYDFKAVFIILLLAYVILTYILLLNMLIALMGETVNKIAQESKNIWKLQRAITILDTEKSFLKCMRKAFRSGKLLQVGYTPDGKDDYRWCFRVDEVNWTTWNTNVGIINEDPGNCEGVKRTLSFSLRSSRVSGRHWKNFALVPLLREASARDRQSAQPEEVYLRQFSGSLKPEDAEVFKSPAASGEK
T2 sequence (O75762 whole entry): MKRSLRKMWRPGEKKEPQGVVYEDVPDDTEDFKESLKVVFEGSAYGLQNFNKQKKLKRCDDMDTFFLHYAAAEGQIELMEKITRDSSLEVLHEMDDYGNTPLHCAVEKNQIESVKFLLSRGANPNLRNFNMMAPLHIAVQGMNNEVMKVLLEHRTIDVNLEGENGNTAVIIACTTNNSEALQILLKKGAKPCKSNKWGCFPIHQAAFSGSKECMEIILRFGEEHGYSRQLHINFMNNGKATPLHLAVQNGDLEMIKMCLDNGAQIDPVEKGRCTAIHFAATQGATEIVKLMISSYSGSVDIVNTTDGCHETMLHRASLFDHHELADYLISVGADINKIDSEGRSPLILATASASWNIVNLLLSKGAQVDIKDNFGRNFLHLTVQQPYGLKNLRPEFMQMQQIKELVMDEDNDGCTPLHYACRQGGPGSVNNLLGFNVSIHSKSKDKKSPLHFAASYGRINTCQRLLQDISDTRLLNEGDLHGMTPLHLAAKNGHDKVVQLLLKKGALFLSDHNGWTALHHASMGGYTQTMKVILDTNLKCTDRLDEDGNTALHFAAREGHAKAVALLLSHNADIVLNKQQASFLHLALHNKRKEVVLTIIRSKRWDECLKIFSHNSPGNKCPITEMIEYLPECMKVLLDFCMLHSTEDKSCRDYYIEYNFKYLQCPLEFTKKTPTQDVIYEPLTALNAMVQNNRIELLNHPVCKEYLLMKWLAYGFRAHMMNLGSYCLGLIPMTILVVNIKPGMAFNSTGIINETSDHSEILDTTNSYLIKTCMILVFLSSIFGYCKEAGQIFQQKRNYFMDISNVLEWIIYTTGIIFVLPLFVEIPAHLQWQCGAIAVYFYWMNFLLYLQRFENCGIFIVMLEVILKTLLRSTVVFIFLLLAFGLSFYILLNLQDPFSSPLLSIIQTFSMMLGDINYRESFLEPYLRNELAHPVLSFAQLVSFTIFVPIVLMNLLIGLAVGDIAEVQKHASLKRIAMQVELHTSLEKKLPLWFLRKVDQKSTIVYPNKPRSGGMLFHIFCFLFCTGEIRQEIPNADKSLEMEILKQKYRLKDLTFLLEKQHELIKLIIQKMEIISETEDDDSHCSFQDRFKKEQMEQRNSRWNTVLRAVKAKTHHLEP

## CCOC(=O)CCCCCCCCC(=O)OCC [Diethyl sebacate, diethyl sebacate]
[1]
  amelioration of mouthfeel (in words): effect of ameliorating the mouthfeel was also confirmed
  fizziness imparting (in words): fizziness can be imparted to the cider-flavored frozen dessert
[1]; 0.1 ppm
  Carbonation sensation imparting evaluation result: 1.4 points
[1]; 0.3 ppm
  Carbonation sensation imparting evaluation result: 1.9 points
[1]; 1 ppm
  Carbonation sensation imparting evaluation result: 2.1 points
[1]; 5 ppm
  Carbonation sensation imparting evaluation result: 3.6 points
[1]; 10 ppm
  Carbonation sensation imparting evaluation result: 4.5 points
[1]; 20 ppm
  Carbonation sensation imparting evaluation result: 3.6 points
[1]; 50 ppm
  Carbonation sensation imparting evaluation result: 2.7 points
[1]; 100 ppm
  Carbonation sensation imparting evaluation result: 1.4 points
Human TRPV1
  TRPV1 activity: high TRPA1 activity and TRPV1 activity; also recorded: respond
[2]; 0.1 ppm
  Fizziness enhancement evaluation result: 1.1 points
[2]; 0.3 ppm
  Fizziness enhancement evaluation result: 1.7 points
[2]; 1 ppm
  Fizziness enhancement evaluation result: 4.0 points
[2]; 5 ppm
  Fizziness enhancement evaluation result: 4.0 points
[2]; 10 ppm
  Fizziness enhancement evaluation result: 3.9 points
[2]; 20 ppm
  Fizziness enhancement evaluation result: 3.4 points
[2]; 50 ppm
  Fizziness enhancement evaluation result: 2.6 points
[2]; 100 ppm
  Fizziness enhancement evaluation result: 1.3 points
[2]; [6]
  amelioration of mouthfeel (in words): effect of ameliorating the mouthfeel was also confirmed
  fizziness enhancement (in words): fizziness of the carbonated grapefruit flavored Chu-Hi can be enhanced
[3]; 0.1 ppm
  Fizziness enhancement evaluation result: 1.1 points
[3]; 0.3 ppm
  Fizziness enhancement evaluation result: 1.6 points
[3]; 1 ppm
  Fizziness enhancement evaluation result: 2.7 points
[3]; 5 ppm
  Fizziness enhancement evaluation result: 2.9 points
[3]; 10 ppm
  Fizziness enhancement evaluation result: 2.7 points
[3]; 20 ppm
  Fizziness enhancement evaluation result: 2.7 points
[3]; 50 ppm
  Fizziness enhancement evaluation result: 1.9 points
[3]; 100 ppm
  Fizziness enhancement evaluation result: 1.1 points
[3]; [7]
  amelioration of mouthfeel (in words): effect of ameliorating the mouthfeel was also confirmed
  fizziness enhancement (in words): fizziness of the carbonated beer-flavored beverage can be enhanced
Human TRPA1
  TRPA1 activity: high TRPA1 activity; also recorded: respond
[4]; 0.1 ppm
  Carbonation sensation imparting evaluation result: 1.8 points
[4]; 1 ppm
  Carbonation sensation imparting evaluation result: 2.2 points
[4]; 5 ppm
  Carbonation sensation imparting evaluation result: 2.8 points
[4]; 10 ppm
  Carbonation sensation imparting evaluation result: 3.4 points
[4]; 50 ppm
  Carbonation sensation imparting evaluation result: 4.0 points
[4]; 100 ppm
  Carbonation sensation imparting evaluation result: 3.8 points
[4]; 500 ppm
  Carbonation sensation imparting evaluation result: 3.0 points
[4]; mouthwash
  amelioration of mouthfeel (in words): effect of ameliorating the mouthfeel was also confirmed
  fizziness imparting (in words): fizziness can be imparted to the mouthwash
[5]
  amelioration of mouthfeel (in words): effect of ameliorating the mouthfeel was also confirmed
  fizziness enhancement (in words): fizziness of the cider-flavored carbonated beverage can be enhanced
[5]; 0.1 ppm
  Fizziness enhancement evaluation result: 1.3 points
[5]; 0.3 ppm
  Fizziness enhancement evaluation result: 1.9 points
[5]; 1 ppm
  Fizziness enhancement evaluation result: 3.7 points
[5]; 5 ppm
  Fizziness enhancement evaluation result: 3.9 points
[5]; 10 ppm
  Fizziness enhancement evaluation result: 3.7 points
[5]; 20 ppm
  Fizziness enhancement evaluation result: 3.6 points
[5]; 50 ppm
  Fizziness enhancement evaluation result: 3.3 points
[5]; 100 ppm
  Fizziness enhancement evaluation result: 1.1 points
